For orientation: inhibition means the relative decrease from the control value, in per cent.

Test [1] addresses T1, 5-HT1A receptor (rat hippocampus) (Rattus norvegicus, UniProt P19327).
T1 construct: hippocampus; from tissue; host or cells: rat hippocampus
T1 sequence (P19327 1-422): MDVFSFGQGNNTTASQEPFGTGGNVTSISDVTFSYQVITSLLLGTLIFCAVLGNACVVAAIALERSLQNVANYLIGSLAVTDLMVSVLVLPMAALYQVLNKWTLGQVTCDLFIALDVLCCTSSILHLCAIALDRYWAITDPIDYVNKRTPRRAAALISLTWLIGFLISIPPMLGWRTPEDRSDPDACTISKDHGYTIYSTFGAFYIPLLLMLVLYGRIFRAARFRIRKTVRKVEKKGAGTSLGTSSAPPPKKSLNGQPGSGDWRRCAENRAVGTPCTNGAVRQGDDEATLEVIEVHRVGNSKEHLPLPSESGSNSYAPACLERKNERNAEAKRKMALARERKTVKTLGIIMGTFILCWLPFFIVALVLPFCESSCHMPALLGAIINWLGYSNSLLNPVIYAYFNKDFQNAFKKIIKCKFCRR
Briefly: Radioligand binding assay, serotoninergic 5-HT1A receptors. To be noted: binding assay result in %, Table 5a.

In test [2] the target is T2, serotonin transporter (SERT) (Homo sapiens, UniProt P31645).
T2 construct: expressed in transfected cells; host or cells: CHO cells
T2 sequence (P31645 whole entry): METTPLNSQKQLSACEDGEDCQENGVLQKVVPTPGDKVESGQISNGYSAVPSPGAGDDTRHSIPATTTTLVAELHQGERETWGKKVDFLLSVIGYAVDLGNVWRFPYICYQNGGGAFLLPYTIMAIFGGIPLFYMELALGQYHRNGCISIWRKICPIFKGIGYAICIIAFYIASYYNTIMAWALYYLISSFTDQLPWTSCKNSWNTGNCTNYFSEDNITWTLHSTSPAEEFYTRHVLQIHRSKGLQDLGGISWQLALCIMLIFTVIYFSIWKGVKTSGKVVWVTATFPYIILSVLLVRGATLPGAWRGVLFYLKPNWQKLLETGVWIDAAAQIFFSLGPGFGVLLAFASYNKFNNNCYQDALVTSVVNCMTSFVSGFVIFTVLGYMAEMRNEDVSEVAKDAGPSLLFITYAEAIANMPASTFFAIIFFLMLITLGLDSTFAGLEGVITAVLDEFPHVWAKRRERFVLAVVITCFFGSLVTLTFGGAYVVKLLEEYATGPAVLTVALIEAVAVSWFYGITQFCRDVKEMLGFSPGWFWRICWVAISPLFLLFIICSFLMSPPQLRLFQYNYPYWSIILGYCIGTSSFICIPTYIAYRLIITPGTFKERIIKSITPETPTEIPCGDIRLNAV
Briefly: Radioligand binding assay, serotonin transporter (SERT). Particulars: binding assay, test compound 1×10^−6 M. An outline of the steps: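 Values are derived from competition curves fitted by the Hill equation to give IC50, then converted to Ki by Cheng-Prusoff with radioligand Kd from Scatchard analysis. Specific binding equals total minus non-specific (excess cold ligand), counted by scintillation, and is also expressed as percent inhibition of control.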

The next test deals with T3, 5-HT2A receptor (Homo sapiens, UniProt P28223).
T3 construct: purchased PerkinElmer
T3 sequence (P28223 whole entry): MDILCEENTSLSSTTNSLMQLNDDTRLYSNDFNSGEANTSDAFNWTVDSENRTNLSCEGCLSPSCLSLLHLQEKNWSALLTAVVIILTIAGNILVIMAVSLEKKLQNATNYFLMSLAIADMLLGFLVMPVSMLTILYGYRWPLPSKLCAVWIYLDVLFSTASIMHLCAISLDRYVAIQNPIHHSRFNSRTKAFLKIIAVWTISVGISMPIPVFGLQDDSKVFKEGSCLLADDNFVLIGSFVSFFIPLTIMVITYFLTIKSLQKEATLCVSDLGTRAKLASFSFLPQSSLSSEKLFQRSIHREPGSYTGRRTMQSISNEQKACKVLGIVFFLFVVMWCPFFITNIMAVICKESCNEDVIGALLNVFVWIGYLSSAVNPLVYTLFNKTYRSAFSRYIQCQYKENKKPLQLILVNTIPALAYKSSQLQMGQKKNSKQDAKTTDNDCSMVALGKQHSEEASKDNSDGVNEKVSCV
The test can be described thus: Radioligand binding assay, serotoninergic 5-HT2A receptors. To be noted: binding assay result in %, Table 5a. The gist of the method: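 Competition curves from scintillation-counted specific binding (total minus binding with excess unlabelled ligand) were Hill-fitted to give IC50, converted to Ki via Cheng-Prusoff using Scatchard-derived Kd.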

Test [3] has as its system α1 adrenergic receptors (rat cerebral cortex). Briefly: Radioligand binding assay, adrenergic α1 receptors. Particulars: test compound 1×10^−6 M. An outline of the steps: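 Values derive from radioligand displacement, with non-specific binding defined by excess cold ligand and detection by scintillation. Hill-fit IC50s were converted to Ki via Cheng-Prusoff using Scatchard-derived Kd; percent inhibition of control specific binding also reported.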

In the next test the target is T4, 5-HT6 receptor (Homo sapiens, UniProt P50406).
T4 construct: purchased PerkinElmer
T4 sequence (P50406 whole entry): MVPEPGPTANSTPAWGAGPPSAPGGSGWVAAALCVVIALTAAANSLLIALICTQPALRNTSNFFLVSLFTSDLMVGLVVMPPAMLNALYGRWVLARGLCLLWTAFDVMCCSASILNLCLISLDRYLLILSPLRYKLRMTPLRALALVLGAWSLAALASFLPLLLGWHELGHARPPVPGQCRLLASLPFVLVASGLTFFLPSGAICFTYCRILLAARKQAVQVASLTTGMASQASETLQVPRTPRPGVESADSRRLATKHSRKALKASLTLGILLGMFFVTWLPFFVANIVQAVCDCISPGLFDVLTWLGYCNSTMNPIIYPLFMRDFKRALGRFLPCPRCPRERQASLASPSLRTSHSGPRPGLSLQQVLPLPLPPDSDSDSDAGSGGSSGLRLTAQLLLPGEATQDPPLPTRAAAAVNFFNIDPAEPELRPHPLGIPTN
Briefly: Radioligand binding assay, serotoninergic 5-HT6 receptors. Particulars: binding assay result in %, Table 5a. The gist of the method: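 Values are Ki from Cheng–Prusoff, taking IC50 from Hill nonlinear regression of competition curves and KD from a Scatchard plot. Specific binding was total minus binding with excess unlabelled ligand. Radioligand displacement was detected by scintillation counting, and data were also reported as percent of control specific binding.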

For a further test, the target named is T5, 5-HT7 receptor (Homo sapiens, UniProt P34969).
T5 construct: purchased PerkinElmer
T5 sequence (P34969 whole entry): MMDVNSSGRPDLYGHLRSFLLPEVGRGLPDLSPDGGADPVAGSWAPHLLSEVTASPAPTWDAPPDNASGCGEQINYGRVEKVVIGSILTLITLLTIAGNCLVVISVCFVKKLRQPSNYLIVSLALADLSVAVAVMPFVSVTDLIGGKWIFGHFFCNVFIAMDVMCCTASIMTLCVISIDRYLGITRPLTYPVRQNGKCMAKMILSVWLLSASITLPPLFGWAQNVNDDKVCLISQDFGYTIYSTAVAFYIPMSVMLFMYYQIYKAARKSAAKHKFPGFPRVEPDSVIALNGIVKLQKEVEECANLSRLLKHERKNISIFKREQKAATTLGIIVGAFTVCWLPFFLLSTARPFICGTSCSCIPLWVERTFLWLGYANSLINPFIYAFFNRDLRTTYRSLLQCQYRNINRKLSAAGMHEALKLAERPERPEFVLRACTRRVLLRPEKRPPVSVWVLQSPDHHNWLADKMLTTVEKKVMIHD
The test can be described thus: Radioligand binding assay, serotoninergic 5-HT7 receptors. To be noted: binding assay result in %, Table 5a. An outline of the steps:
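Ki values used the Cheng–Prusoff equation, with KD from Scatchard analysis, applied to IC50 from Hill fits of human 5-HT7 radioligand competition curves. Bound radioligand was counted by scintillation, and excess unlabelled ligand set the non-specific binding.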

Test [4] deals with dopaminergic receptors D3 (Homo sapiens, UniProt P35462). Briefly: Radioligand binding assay, dopaminergic D3 receptors. To be noted: test compound 1×10^−6 M. An outline of the steps:
(§1)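 Scintillation read-out. Specific = total − nonspecific (excess cold ligand). Data as % of control specific binding / % inhibition; IC50 by Hill fit; Ki = IC50/(1+L/KD), KD from Scatchard plot.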

Test [5] concerns the target dopaminergic receptors D2 (Homo sapiens, UniProt P14416). Briefly: Radioligand binding assay, dopaminergic D2 receptors. Particulars: binding assay, test compound 1×10^−6 M. An outline of the steps:
as §1

dopaminergic receptors D3, sequence (P35462 whole entry): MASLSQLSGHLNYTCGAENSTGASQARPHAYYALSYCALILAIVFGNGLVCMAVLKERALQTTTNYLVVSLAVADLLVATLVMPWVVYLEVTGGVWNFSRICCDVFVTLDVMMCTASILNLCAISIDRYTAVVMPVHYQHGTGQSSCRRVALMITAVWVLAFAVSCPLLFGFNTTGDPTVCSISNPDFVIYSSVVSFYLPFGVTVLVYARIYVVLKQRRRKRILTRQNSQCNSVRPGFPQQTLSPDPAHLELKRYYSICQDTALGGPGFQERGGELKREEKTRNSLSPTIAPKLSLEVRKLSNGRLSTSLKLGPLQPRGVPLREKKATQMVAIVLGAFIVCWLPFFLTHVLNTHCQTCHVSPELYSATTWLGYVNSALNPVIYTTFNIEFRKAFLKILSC
dopaminergic receptors D2, sequence (P14416 whole entry): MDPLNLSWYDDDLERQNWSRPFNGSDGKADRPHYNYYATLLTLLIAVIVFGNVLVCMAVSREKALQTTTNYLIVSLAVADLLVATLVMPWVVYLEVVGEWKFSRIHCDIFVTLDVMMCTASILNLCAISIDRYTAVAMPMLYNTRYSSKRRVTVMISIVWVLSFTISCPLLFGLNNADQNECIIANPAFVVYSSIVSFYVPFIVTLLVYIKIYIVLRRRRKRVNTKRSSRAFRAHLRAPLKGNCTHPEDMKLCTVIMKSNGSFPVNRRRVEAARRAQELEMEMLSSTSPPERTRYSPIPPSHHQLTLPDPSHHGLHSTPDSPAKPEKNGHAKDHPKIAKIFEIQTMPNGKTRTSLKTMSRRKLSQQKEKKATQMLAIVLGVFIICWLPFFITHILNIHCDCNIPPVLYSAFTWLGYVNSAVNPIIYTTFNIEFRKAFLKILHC

As for `Cc1ccc(S(=O)(=O)NCC2CCN(CCOc3cccc4c3OCCO4)C2)cc1` (centres unmarked) [Compound 291, N-[[1-[2-(2,3-Dihydro-1,4-benzodioxin-5-yloxy)ethyl]pyrrolidin-3-yl]methyl]-4-methyl-benzenesulphonamide], the inhibition at 1 µM in test [1] is 94%; in test [2], 66%; at 5-HT2A receptor, 63%; at 5-HT6 receptor, 19%; on 5-HT7 receptor, 80%; in test [4], 33%. In test [5], the inhibition at 1 µM was 29%. The “α1 [%]” value in test [3] is listed as 66%.

As for `O=S(=O)(NCC1CCN(CCOc2cccc3c2OCCO3)C1)c1ccc2scnc2c1` (centres unmarked) [Compound 285, N-[[1-[2-(2,3-Dihydro-1,4-benzodioxin-5-yloxy)ethyl]pyrrolidin-3-yl]methyl]-1,3-benzothiazole-5-sulphonamide], the inhibition at 1 µM in test [1] is 62%; in test [2], 60%; at 5-HT2A receptor, 77%; at 5-HT6 receptor, 34%; at 5-HT7 receptor it was 86%; in test [4] it was 18%. Moreover, the inhibition at 1 µM in test [5] was found to be 24%. For the same molecule, the “α1 [%]” value in test [3] is reported as 69%.

As to `O=S(=O)(NCC1CCN(CCOc2cccc3c2OCCO3)C1)c1cccs1` (centres unmarked) [Compound 302, N-[[1-[2-(2,3-Dihydro-1,4-benzodioxin-5-yloxy)ethyl]pyrrolidin-3-yl]-methyl]thiophene-2-sulphonamide], the inhibition at 1 µM came out at 89% in test [1]; 37% in test [2]; 52% on 5-HT2A receptor; 35% on 5-HT6 receptor; 105% at 5-HT7 receptor; 37% in test [4]. In test [5], the inhibition at 1 µM came to 34%. In addition, the “α1 [%]” value in test [3] amounted to 63%.

In the case of `O=S(=O)(NCC1CCN(CCCc2noc3cc(F)ccc23)C1)c1ccc(Cl)c(Cl)c1` (centres unmarked) [Compound 253, 3,4-Dichloro-N-[[1-[3-(6-fluoro-1,2-benzoxazol-3-yl)propyl]pyrrolidin-3-yl]methyl]benzenesulphonamide], the inhibition at 1 µM is 34% in test [1]; 12% in test [2]; 99% at 5-HT2A receptor; 101% at 5-HT6 receptor; 97% on 5-HT7 receptor; 55% in test [4]. In addition, the inhibition at 1 µM in test [5] stood at 87%. Moreover, in test [3], the “α1 [%]” value worked out at 94%.

Consider `O=S(=O)(NCC1CN(CCOc2cccc3c2OCCO3)C1)c1ccc(Cl)s1` [Compound 192, 5-Chloro-N-[[1-[2-(2,3-dihydro-1,4-benzodioxin-5-yloxy)ethyl]azetidin-3-yl]methyl]thiophene-2-sulphonamide], for which the inhibition at 1 µM in test [1] was 79%; in test [2], 38%; on 5-HT2A receptor, 86%; on 5-HT6 receptor it was 30%; on 5-HT7 receptor, 97%; in test [4], 70%. Besides, in test [5], the inhibition at 1 µM stood at 42%. Besides, in test [3], the “α1 [%]” value stood at 88%.

Turning to `O=S(=O)(NCC1CN(CCOc2cccc3c2OCCO3)C1)c1cccs1` [Compound 184, N-[[1-[2-(2,3-Dihydro-1,4-benzodioxin-5-yloxy)ethyl]azetidin-3-yl]methyl]-thiophene-2-sulphonamide], the inhibition at 1 µM came out at 71% in test [1]; 1% in test [2]; 76% on 5-HT2A receptor; 20% at 5-HT6 receptor; 89% on 5-HT7 receptor; 39% in test [4]. Besides, in test [5], the inhibition at 1 µM was found to be 24%. For the same molecule, the “α1 [%]” value in test [3] stood at 88%.

Regarding `Cc1c(S(=O)(=O)NCC2CN(CCOc3cccc4ccccc34)C2)sc2ccc(F)cc12` [Compound 166, 5-Fluoro-3-methyl-N-[[1-[2-(1-naphthyloxy)ethyl]azetidin-3-yl]methyl]benzothiophene-2-sulphonamide], the inhibition at 1 µM in test [1] came to 78%; in test [2], 32%; on 5-HT2A receptor, 100%; on 5-HT6 receptor it was 98%; on 5-HT7 receptor, 97%; in test [4] it was 101%. The inhibition at 1 µM in test [5] stood at 82%. In addition, the “α1 [%]” value in test [3] is listed as 23%.

In the case of `O=S(=O)(NCC1CCN(CCCc2noc3cc(F)ccc23)CC1)c1cccc2ccccc12` [Compound 37, N-[[1-[3-(6-Fluoro-1,2-benzoxazol-3-yl)propyl]-4-piperidine]methyl]-naphthalene-1-sulphonamide], the “5-HT1A [%]” value in test [1] is 29%. Also, in test [2], the “SERT [%]” value is given as 30%. For the same molecule, at 5-HT2A receptor, the “5-HT2A [%]” value is 56%. In addition, the “α1 [%]” value in test [3] is 96%. For the same molecule, the “5-HT6 [%]” value at 5-HT6 receptor is on record as 97%. Besides, the “5-HT7 [%]” value on 5-HT7 receptor came out at 94%. In addition, the “D3 [%]” value in test [4] turned out to be 66%. Besides, the “D2 [%]” value in test [5] is recorded as 83%.

In the case of `O=S(=O)(NC1CCN(CCOc2cccc3[nH]ccc23)C1)c1cccc2ccccc12` (centres unmarked) [Compound 53, N-[1-[2-(1H-indol-4-yloxy)ethyl]pyrrolidin-3-yl]naphthalene-1-sulphonamide], the inhibition at 1 µM was found to be 90% in test [1]; 56% in test [2]; 85% at 5-HT2A receptor; 54% on 5-HT6 receptor; 102% on 5-HT7 receptor; 99% in test [4]. Further, the inhibition at 1 µM in test [5] came out at 74%. The “α1 [%]” value in test [3] was found to be 88%.

On to `O=S(=O)(NC1CCN(CCCc2noc3cc(F)ccc23)C1)c1ccc2c(c1)OCO2` (centres unmarked) [Compound 194, N-[1-[3-(6-Fluoro-1,2-benzoxazol-3-yl)propyl]pyrrolidin-3-yl]-1,3-benzo-dioxole-5-sulphonamide], for which the inhibition at 1 µM worked out at 63% in test [1]; 1% in test [2]; 29% at 5-HT2A receptor; 53% on 5-HT6 receptor; 82% on 5-HT7 receptor; 48% in test [4]. The inhibition at 1 µM in test [5] turned out to be 19%. The “α1 [%]” value in test [3] is recorded as 96%.

For the molecule `O=S(=O)(NCC1CCN(CCOc2cccc3ccccc23)C1)c1cc2ccccc2s1` (centres unmarked) [Compound 268, N-[[1-[2-(1-Naphthyloxy)ethyl]pyrrolidin-3-yl]methyl]benzothiophene-2-sulphonamide], the inhibition at 1 µM in test [1] is 77%; in test [2] it was 85%; at 5-HT2A receptor, 82%; at 5-HT6 receptor it was 84%; on 5-HT7 receptor, 88%; in test [4] it was 93%. The inhibition at 1 µM in test [5] turned out to be 54%. Further, in test [3], the “α1 [%]” value was found to be 9%.

In the case of `O=S(=O)(NCC1CCN(CCOc2cccc3ccccc23)C1)c1cc2ccc(Cl)cc2s1` (centres unmarked) [Compound 269, 6-Chloro-N-[[1-[2-(1-naphthyloxy)ethyl]pyrrolidin-3-yl]methyl]-benzothiophene-2-sulphonamide], the inhibition at 1 µM was 60% in test [1]; 53% in test [2]; 91% on 5-HT2A receptor; 82% at 5-HT6 receptor; 98% at 5-HT7 receptor; 89% in test [4]. Further, in test [5], the inhibition at 1 µM was 38%. In test [3], the “α1 [%]” value is listed as −1%.

With `O=S(=O)(NC1CCN(CCOc2cccc3[nH]ccc23)C1)c1ccccc1` (centres unmarked) [Compound 51, N-[1-[2-(1H-Indol-4-yloxy)ethyl]pyrrolidin-3-yl]benzenesulphonamide], the inhibition at 1 µM in test [1] came to 91%; in test [2] it was 6%; on 5-HT2A receptor it was 67%; at 5-HT6 receptor it was 10%; on 5-HT7 receptor, 101%; in test [4] it was 103%. Moreover, in test [5], the inhibition at 1 µM stood at 54%. Further, in test [3], the “α1 [%]” value worked out at 77%.

(Values after patent publication US20140135310A1, “SULPHONAMIDE DERIVATIVES OF ALICYCLIC AMINES FOR THE TREATMENT OF CENTRAL NERVOUS SYSTEM DISEASES” (Adamed Sp. z o.o., priority 2011, published 2014).)
